Here are results for one compound from US8173618B2, “Formulations for reducing neuronal degeneration” (University of Massachusetts, priority 2003, dated 2012).

“And” between values parts separate entries of the source, which are not always exact repeats. Equal values may be shown once.

Test [1] deals with SH-SY-5Y cells. The test is described as follows: HPLC of homocysteine in SH-SY-5Y cell lysates and medium. The test is classed as cell-based, human. The method, then: Glutathione levels were quantified in homogenates of SH-SY-5Y cells. Cultures were rinsed twice with Tris-buffered saline (TBS), scraped from the plate in a small volume of TBS and homogenized on ice. Medium was also utilized for analysis of HCY along with cellular lysates, since HCY is normally exported from cells. Homogenates (100 μl) were reduced by mixing with 50 μl of 100 μM N-acetylcysteine or with 30 μl of 30 μM cystamine (as an internal standard) and 10 μl of tri-carboxyethylphosphine (100 mg/ml in 0.05 M HCl). Samples were vortexed, incubated at room temperature for 30 minutes, then centrifuged at 10,000×g for 10 minutes. 80 μl of the resulting supernatant were combined with 160 μl of 2 M boric acid/4 mM EDTA (pH 10.5), followed by 80 μl of 1.0 mg/ml SBDF [7-fluorobenzo-2-oxa-1,3-diazole-4-sulfonate] in boric acid/EDTA buffer). Samples were mixed, incubated for 60 minutes at 60° C., equilibrated to reach temperature, and 50 μl of the sample was then injected into a Hewlett Packard model 1090 HPLC, which is used with a 1046A fluorescence detector and a Hewlett Packard 4.6×60 mm high-speed analytical column packed with 3 μM ODs (C18) Hypersil silica. The mobile phase consisted of methanol/0.2 M acetate buffer pH 4.0 (2/98 by volume). Glutathione concentrations were then determined by comparison of peak area ratios of glutathione to the internal standard N-acetylcysteine in the sample compared to peak areas obtained for a glutathione standard curve. Samples were derived from 3-4 normal and 3-4 ApoE−/− mice for each dietary condition, from ≧2 independent experiments (total n≧6 for each diet for both experiments).
Medium was then decanted, cells were scraped from the plate and homogenized, and medium and cellular lysates, along with an aliquot of fresh medium that had not been in contact with cells, were subjected to HPLC analyses.

For test [2], the system named is murine cortical neurons. The test is described as follows: PHF-1 immunofluorescence in murine cortical neurons with or without folate. Type of test: cell-based, mice. As to conditions: folate deficiency, two hours. The method, then: For immunocytochemistry to detect paired helical filament-1 (PHF-1) staining (as an index of tau phosphorylation), cells were fixed for 15 minutes with 4% paraformaldehyde in 0.1 M phosphate buffer and immunostained by sequential reaction with a mouse monoclonal PHF-1 antibody that was raised against tau from paired helical filaments isolated from the brains of Alzheimer disease patients. Incubation with PHF-1 antibody was followed by rhodamine conjugated goat anti-mouse IgG and visualization using methods known in the art. […] In these experiments, SH-SY-5Y cells were cultured in folate-deficient Dulbecco's Modified Essential Medium (DMEM; Sigma) in the absence of serum for two hours. Cortical neurons were prepared from 12 day embryonic C57/B16 day old mice using known methods. The cortical neurons were cultured for 3 days in neurobasal medium with B27 supplements ([…] et al., 1999, J. Biol. Chem., 274:30322-30327). […] Both the SH-SY-5Y cultures and the cortical neurons were processed for PHF-1 (paired helical filament 1) immunofluorescence using known methods ([…] et al., 1999 supra). Control cells cultured in the continued presence of normal folate levels were also processed. Phospho-tau was also examined using immunoblot analysis. […]

Test [3] concerns differentiated SH-SY-5Y cells. The test is described as follows: Externalized phosphatidylserine (meracyanine fluorescence) as index of apoptosis in SH-SY-5Y cells. Type of test: cell-based, human. The method, then:
Levels of externalized phosphatidylserine (PS) were used as a measure of apoptosis (Rimon et al., 1997, J. Neurosci. Res., 48:563-570). Briefly, cultures were subjected to treatments then rinsed with PBS and incubated with 10 μl/ml merocyanine (Upstate Biotech, Lake Placid, N.Y.), followed by examination under rhodamine optics (Ekinci et al, 1999, J. Biol. Chem., 274:30322-30327).
The question of whether folate deficiency is associated with apoptosis was investigated. […] Overall detachment, a further sign of cell death, was evident by the seventh day in the serum-deprived cultures. The detachment phenomenon precluded longer experiments.
The effect of ALCAR on differentiated SH-SY-5Y cells treated with Abeta was examined. Cells were cultured in 20 μM Abeta in the presence and absence of ALCAR. Some cultures were pretreated with 50 μM ALCAR for 30 minutes. In these experiments, the ALCAR-containing medium was replaced with medium containing Abeta and no ALCAR then incubated for two hours before being assayed. Cultures were assayed for ROS, apoptosis, and ATP.

The test system of test [4] is differentiated SH-SY-5Y cells. Put plainly: Intracellular ROS by DCFD fluorescence in differentiated SH-SY-5Y cells. The test is classed as cell-based, human. The method, then: Cultured cells were used to test individual agents and formulations. In general, SH-SY-5Y human neuroblastoma cells were cultured in DMEM (Cellgro) containing 10% fetal bovine serum in 5% CO2.
For treatments with Abeta, differentiated cultures were transferred to medium without serum and treated for two hours with 20 μM Abeta25-35 (Sigma Chemical Co., St. Louis, Mo.). […] Louis, Mo.). In experiments calling for treatment of cell cultures with N-acetyl cysteine (NAC; NALC), cultures were treated with 10 mM NAC (Sigma Chemical Co., St. Louis, Mo.) after the culture was grown for two hours in serum-free medium.
Intracellular reactive oxygen species (ROS) were monitored as described in Ekinci et al., 1999 (J. Biol. Chem., 274:30322-30327). Briefly, cells were incubated for 30 minutes with dichloro-fluorescein diacetate (DCFD; acetoxymethyl ester; Molecular Probes, Inc., Eugene, Oreg.), which is used to detect intracellular peroxide levels. Incubation was followed by rinsing of cultures in serum-free medium and immediate capture of images using UV optics. Images were captured under epifluorescent and phase-contrast illumination using a DAGE CCL-72 cooled CCD camera via a Scion LG-3 frame grabber operated by NIH Image (see the Internet at rsb.info.nih.gov/nih-image). Images were then stored as PICT files on a Macintosh Power PC 7100AV for subsequent analysis. At least 100 cells in randomly-selected fields from duplicate cultures derived from multiple experiments were scored for fluorescent intensity using NIH Image analysis software. Representative background areas devoid of cells were similarly analyzed and subtracted from cell values to yield net densitometric values. All fields for each individual assay were illuminated, captured, and processed under identical settings. Corresponding phase-contrast images were obtained. Cell aggregates were excluded from the assays; only individual cells were quantified. Values were exported to Excel for statistical analyses using Student's t test.
For monitoring of intracellular peroxide concentrations as an index of ROS, cultures received 10 μl/ml DFCD (2′7′-dichlorofluorescein diacetate; Kodak) for 20 minutes. Cultures were then visualized under fluorescein UV optics (perikaryon; Ekinci and Shea, 1999, supra).

Consider `Nc1nc2ncc(CNc3ccc(C(=O)N[C@@H](CCC(=O)O)C(=O)O)cc3)nc2c(=O)[nH]1` [folate, folic acid], for which the “homocysteine levels within cell lysates” value in test [1] (both before and after folate deprivation) is reported as below 1 nM. For the same compound, the “homocysteine levels in medium” value is on record as “approximately 300 nM” in test [1] (cells cultured two hours in the absence of folate) and “about 30 nM” in test [1] (cells cultured two hours in the presence of folate). The “average increase in PHF-1 immunofluorescence” value in test [2] was determined as 1.5 fold. Further, the “meracyanine fluorescence (externalized PS) Mean ± SEM” value in test [3] (+folate, Day 1, without serum) was 34.0 ± 1.2 arbitrary fluorescent units; in test [3] (+folate, Day 3, without serum), 40.9 ± 2.0 arbitrary fluorescent units; in test [3] (+folate, Day 5, without serum) it was 63.7 ± 3.6 arbitrary fluorescent units; in test [3] (−folate, Day 1, without serum), 31.2 ± 1.4 arbitrary fluorescent units; in test [3] (−folate, Day 3, without serum), 44.1 ± 4.1 arbitrary fluorescent units; in test [3] (−folate, Day 5, without serum) it was 112.7 ± 5.7 arbitrary fluorescent units. In test [4] (5×folate (20 mg/l), 20 μM Abeta two hours), the “Abeta-induced increase in ROS” value is reported as “prevented”. Moreover, the “ROS in otherwise untreated cells” value in test [4] (10×folate compared to 1-5×folate) is recorded as “marginal decrease in ROS”. Also, the “ROS Mean ± SEM” value in test [4] (folate (control), two hours) is listed as 7.6 ± 0.3; in test [4] (no folate, two hours) it was 10.5 ± 0.5. Besides, the “increase in ROS” value in test [4] (folate deprivation, compared to cells cultured in the presence of folate (Example 6)) turned out to be 64±5%. The “ROS % increase vs. control” value in test [4] (no folate, two hours, vs cultures receiving folate) was 38±4% and 38%. In addition, the ROS entry in test [4] (single agent, control cells and cells exposed to Abeta, two hours) was “reduced ROS”.
